Experimental data as given in patent US11572373B2, “Maytansinoid-based drug delivery systems” (LADRX CORPORATION, priority 2017, dated 2023).

Experiments:
[1] = Stability of maytansinoids and maytansinoid-HSA conjugates in CD1 mouse plasma; type: in vitro ADME; details: 37° C., 30 μM
Experimental: (§1) For studying the stability of the maytansinoids as wells as the maytansinoid-HSA conjugates in CD1 and human plasma the compounds were incubated at 37° C. for 24 hours. Remaining free maytansinoid or release of the respective maytansinoid was quantified by LC-MS/MS (or HPLC) at certain time points.
(§2) Pooled CD1 mouse or human plasma (K2EDTA, Innovative research) was centrifuged (1 min at 12,044 g). The supernatant was first filtered through a filter needle (5 μm, sterile, Becton Dickinson) and subsequently through a cellulose acetate membrane (0.45 μm, sterile, Carl Roth). The filtered plasma (1710 μL) was preincubated at 37° C. for 30 min in a heating block. The free maytansinoid or albumin-binding maytansinoid as a 300 μM stock solution in DMSO (190 μL) was added to the preincubated plasma sample to produce a 30 μM solution of the respective maytansinoid or maytansinoid-HSA conjugate. The mixture was allowed to react for 10 min at 37° C. and then at each time point (0, 1, 2, 3, 4, 5, 21, and 24 hours) three samples (70 μL) were taken into a 96-well plate, sealed with a plastic mat, immediately frozen with liquid nitrogen and stored at −20° C. At the end of the experiment, the 96-well plate was thawed at room temperature. The samples (30 μL) were then directly transferred via a multichannel pipette into a 96-well Impact™ protein precipitation plate (Strata®) which was once washed with MeCN (150 μL) and then loaded with the internal standard (120 μL, MeCN containing 5 μg/mL maytansine). The Impact™ precipitation plate was sealed with a silicone mat and shaken for 2 min 420 rpm. The Impact™ precipitation plate was then placed onto a 96-well sample manifold and the filtrate was collected into another 96-well plate by applying mild vacuum. The 96-well plate was sealed with a silicone mat and kept at room temperature until LC-MS/MS quantification. The filtrate was injected into the LC-MS for quantification using the MRM mode. […]

[2] = Stability of maytansinoids and maytansinoid-HSA conjugates in human plasma; type: in vitro ADME; details: 37° C., 30 μM
Experimental: as §1, §2

[3] = In vitro cytotoxicity in different cell lines using the CellTiter-Blue Cell Viability Assay; type: cell-based, human; details: Homo sapiens; geometric mean over the n cell lines tested, 96 h treatment, CellTiter-Blue; read-out: Geomean IC50
[4] = system: cancer cell lines (LXFL 529, RKO, SW-620, CAL-27, LXFL 1674L, MDA-MB 468, SK-OV-3, PAXF 1657, MCF7, COLO 205, MDA-MB 231, BT-474, Hep G2); test: as above; type: cell-based, human; details: geometric mean over the n cell lines tested, 96 h treatment, CellTiter-Blue; read-out: Geomean IC50

## COc1cc2cc(c1Cl)N(C)C(=O)C[C@H](OC(=O)COc1cccc(C(C)=O)c1)[C@]1(C)O[C@H]1[C@H](C)[C@@H]1C[C@@](O)(NC(=O)O1)[C@H](OC)/C=C/C=C(\C)C2 [Compound 3]
[1]
  % of free maytansinoid remaining after 24 h: 40.8%
[2]
  % of free maytansinoid remaining after 24 h: 69.6%
[3]
  IC50: 0.1 nM

## COc1cc2cc(c1Cl)N(C)C(=O)C[C@H](OC(=O)Cc1ccc(C(C)=O)cc1)[C@]1(C)O[C@H]1[C@H](C)[C@@H]1C[C@@](O)(NC(=O)O1)[C@H](OC)/C=C/C=C(\C)C2 [Compound 4]
[1]
  % of free maytansinoid remaining after 24 h: 65.2%
[2]
  % of free maytansinoid remaining after 24 h: 75.6%
[3]
  IC50: 0.16 nM

## COc1cc2cc(c1Cl)N(C)C(=O)C[C@H](OC(=O)[C@H](C)N(C)C(=O)CCS)[C@]1(C)O[C@H]1[C@H](C)[C@@H]1C[C@@](O)(NC(=O)O1)[C@H](OC)/C=C/C=C(\C)C2 [DM1, reference compound]
[4]
  IC50: 3.22 nM

## COc1cc2cc(c1Cl)N(C)C(=O)C[C@H](OC(=O)[C@H](C)N(C)C(=O)CCSSC)[C@]1(C)O[C@H]1[C@H](C)[C@@H]1C[C@@](O)(NC(=O)O1)[C@H](OC)/C=C/C=C(\C)C2 [DM1-SMe, reference compound]
[4]
  IC50: 1.3 nM
